Assay type in all cases: binding
One assay addresses T1, JAK2 (Homo sapiens, UniProt O60674).
T1 construct: endogenous in cells; host or cells: Molt4 (ATCC CRL-1582) and Ramos (ATCC CRL-1596) cells; mixed lysate 1:2
The assay can be described thus: Kinobeads assay with immunodetection, JAK2. Conditions: mixed Molt4/Ramos lysate, read-out: Inhibition values (IC50) JAK2. In a few lines: (§1)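 Mixed Molt4/Ramos lysate (1:2, 10 mg/mL protein) incubated 3 h in the cold with compound (1:3 series from 5 mM DMSO stock) and immobilized aminopyrido-pyrimidine Kinobeads. Bead-bound JAK1, JAK2, JAK3 and TYK2 eluted and quantified by antibody dot blot (Odyssey), IC50 from dose-response curves.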

A further assay concerns the target T2, JAK1 (Homo sapiens, UniProt P23458).
T2 construct: endogenous in cells; host or cells: Molt4 (ATCC CRL-1582) and Ramos (ATCC CRL-1596) cells; mixed lysate 1:2
The assay can be described thus: Kinobeads assay with immunodetection, JAK1. The note with it: for pIC50: Kinobeads assay, mixed Molt4/Ramos lysate, read-out: Inhibition values (IC50) JAK1. Summed up: as §1

In the next assay the target is T3, TYK2 (Homo sapiens, UniProt P29597).
T3 construct: endogenous in cells; host or cells: Molt4 (ATCC CRL-1582) and Ramos (ATCC CRL-1596) cells; mixed lysate 1:2
In words: Kinobeads assay with immunodetection, TYK2. Conditions: for pIC50: Kinobeads assay, mixed Molt4/Ramos lysate, read-out: Inhibition values (IC50) Tyk2. In a few lines:
as §1

For a further assay, the target named is T4, JAK3 (Homo sapiens, UniProt P52333).
T4 construct: endogenous in cells; host or cells: Molt4 (ATCC CRL-1582) and Ramos (ATCC CRL-1596) cells; mixed lysate 1:2
T4 sequence (P52333 1-1124): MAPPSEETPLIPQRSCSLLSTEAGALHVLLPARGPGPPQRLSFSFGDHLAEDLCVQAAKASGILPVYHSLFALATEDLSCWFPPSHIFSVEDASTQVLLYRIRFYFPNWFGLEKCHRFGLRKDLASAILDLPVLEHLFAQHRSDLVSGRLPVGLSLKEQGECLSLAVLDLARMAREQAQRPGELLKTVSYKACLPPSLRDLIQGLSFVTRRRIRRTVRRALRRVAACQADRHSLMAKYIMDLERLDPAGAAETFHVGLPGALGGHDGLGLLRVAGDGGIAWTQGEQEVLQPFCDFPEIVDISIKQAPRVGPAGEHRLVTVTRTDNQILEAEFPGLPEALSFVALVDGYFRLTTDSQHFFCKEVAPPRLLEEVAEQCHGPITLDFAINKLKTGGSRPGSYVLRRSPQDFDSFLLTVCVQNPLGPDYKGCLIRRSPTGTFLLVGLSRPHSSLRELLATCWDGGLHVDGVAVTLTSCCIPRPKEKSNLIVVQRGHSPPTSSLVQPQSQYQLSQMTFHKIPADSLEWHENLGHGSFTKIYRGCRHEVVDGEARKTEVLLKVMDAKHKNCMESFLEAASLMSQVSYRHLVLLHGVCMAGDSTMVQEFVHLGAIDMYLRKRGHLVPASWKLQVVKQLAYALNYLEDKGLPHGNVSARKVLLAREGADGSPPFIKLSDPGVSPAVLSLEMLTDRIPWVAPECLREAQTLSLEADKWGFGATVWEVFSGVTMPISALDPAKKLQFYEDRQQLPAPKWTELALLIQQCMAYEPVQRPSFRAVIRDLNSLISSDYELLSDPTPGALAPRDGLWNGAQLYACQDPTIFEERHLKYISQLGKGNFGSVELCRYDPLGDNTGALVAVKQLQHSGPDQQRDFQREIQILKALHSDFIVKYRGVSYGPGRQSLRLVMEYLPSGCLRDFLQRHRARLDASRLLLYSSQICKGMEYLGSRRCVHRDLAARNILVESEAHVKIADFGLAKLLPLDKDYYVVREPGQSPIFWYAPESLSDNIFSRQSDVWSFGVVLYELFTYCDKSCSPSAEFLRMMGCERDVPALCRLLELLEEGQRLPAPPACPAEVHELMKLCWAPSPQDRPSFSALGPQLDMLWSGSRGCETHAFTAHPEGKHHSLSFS
In words: Kinobeads assay with immunodetection, JAK3. The note with it: for pIC50: Kinobeads assay, mixed Molt4/Ramos lysate, read-out: Inhibition values (IC50) JAK3. In a few lines: as §1

pIC50: −log10 of the molar value. Where a name gives a salt, the structure may show the parent alone. A value given as a limit tells only on which side of the number the result lay.

T2 sequence (P23458 whole entry): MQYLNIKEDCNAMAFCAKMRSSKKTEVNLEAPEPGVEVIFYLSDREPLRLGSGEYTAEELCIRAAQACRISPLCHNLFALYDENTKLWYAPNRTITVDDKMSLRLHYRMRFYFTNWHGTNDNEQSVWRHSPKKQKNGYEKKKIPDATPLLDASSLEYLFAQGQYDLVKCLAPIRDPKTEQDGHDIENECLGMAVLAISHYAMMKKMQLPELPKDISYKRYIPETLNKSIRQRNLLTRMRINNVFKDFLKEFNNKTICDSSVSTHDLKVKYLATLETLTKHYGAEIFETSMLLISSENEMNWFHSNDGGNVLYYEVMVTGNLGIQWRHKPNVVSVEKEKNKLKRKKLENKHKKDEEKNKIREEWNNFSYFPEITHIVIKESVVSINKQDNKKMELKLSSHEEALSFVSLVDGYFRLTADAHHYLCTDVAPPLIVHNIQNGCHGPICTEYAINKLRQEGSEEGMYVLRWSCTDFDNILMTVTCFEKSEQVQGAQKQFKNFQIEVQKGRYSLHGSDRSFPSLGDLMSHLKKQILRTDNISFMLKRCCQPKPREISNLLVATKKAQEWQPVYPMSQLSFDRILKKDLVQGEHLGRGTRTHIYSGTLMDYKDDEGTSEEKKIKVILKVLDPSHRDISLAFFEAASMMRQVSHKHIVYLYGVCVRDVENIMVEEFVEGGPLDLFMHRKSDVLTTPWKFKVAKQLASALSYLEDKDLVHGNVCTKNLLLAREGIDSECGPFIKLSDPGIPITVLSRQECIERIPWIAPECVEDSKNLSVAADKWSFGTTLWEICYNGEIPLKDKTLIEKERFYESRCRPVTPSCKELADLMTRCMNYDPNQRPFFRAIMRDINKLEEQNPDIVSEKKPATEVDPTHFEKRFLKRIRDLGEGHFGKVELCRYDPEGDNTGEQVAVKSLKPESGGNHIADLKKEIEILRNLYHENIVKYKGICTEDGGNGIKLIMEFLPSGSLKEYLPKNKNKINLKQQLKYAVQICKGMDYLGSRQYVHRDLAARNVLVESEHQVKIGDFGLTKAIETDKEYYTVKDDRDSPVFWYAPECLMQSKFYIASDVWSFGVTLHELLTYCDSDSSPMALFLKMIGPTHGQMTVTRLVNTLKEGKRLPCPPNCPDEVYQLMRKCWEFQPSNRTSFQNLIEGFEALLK
T1 sequence (O60674 whole entry): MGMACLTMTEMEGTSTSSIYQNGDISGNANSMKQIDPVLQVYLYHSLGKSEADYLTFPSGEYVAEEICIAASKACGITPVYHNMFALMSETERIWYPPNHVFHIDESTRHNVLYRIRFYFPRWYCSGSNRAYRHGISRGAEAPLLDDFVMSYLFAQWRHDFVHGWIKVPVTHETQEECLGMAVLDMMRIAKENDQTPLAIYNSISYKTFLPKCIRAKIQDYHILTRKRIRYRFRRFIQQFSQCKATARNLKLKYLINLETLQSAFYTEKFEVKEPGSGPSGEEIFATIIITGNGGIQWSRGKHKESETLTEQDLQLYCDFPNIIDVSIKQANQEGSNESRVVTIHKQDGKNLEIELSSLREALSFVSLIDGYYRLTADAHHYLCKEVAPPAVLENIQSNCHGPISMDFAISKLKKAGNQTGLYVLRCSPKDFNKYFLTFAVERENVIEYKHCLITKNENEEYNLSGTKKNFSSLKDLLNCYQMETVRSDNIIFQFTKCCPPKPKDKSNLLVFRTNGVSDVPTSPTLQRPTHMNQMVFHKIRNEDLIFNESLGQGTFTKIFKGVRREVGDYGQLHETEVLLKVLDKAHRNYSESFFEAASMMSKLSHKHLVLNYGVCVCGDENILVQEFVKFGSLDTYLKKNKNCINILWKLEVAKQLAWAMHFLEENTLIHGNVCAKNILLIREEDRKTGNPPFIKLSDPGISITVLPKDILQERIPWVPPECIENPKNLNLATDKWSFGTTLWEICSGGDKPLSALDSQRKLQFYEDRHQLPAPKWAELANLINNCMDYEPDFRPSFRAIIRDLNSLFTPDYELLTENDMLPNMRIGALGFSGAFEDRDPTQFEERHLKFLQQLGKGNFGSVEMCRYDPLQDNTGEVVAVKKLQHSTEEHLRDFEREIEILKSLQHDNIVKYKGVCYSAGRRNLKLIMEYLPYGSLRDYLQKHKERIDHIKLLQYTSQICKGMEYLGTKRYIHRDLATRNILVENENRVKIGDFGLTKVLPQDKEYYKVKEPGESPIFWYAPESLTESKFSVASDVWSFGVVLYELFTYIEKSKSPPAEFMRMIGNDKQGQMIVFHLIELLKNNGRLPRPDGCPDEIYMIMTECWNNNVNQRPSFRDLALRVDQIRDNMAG
T3 sequence (P29597 whole entry): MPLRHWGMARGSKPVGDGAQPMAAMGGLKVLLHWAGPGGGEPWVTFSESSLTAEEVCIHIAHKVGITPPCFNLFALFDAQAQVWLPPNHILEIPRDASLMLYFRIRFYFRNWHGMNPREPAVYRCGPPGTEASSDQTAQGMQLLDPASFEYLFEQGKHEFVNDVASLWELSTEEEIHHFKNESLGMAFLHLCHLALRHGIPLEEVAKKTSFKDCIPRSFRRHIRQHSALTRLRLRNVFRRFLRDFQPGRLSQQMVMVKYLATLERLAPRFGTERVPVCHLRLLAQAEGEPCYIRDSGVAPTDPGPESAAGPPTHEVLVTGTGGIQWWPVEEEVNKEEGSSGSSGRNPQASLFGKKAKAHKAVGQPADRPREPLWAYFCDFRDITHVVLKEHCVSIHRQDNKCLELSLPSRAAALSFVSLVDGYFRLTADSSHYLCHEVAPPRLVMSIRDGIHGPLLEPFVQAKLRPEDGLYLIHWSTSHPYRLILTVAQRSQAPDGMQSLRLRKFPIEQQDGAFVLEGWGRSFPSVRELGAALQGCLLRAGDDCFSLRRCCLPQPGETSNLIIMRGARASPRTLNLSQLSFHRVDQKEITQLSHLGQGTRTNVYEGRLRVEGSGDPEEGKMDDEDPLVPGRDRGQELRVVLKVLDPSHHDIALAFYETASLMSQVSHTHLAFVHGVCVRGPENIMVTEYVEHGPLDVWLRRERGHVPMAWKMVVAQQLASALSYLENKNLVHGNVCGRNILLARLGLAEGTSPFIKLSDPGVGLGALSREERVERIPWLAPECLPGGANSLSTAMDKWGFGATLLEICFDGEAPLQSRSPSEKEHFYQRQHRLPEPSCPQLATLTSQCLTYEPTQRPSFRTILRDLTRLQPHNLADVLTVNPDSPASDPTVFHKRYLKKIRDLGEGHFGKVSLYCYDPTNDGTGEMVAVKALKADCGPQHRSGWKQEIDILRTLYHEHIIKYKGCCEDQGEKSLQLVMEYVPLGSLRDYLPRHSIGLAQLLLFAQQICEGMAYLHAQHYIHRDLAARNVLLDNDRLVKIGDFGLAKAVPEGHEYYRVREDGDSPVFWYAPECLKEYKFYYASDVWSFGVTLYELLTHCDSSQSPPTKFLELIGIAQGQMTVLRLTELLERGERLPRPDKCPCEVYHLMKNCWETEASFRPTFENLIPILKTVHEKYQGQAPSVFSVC

In the case of `CN(C)C(=O)Cn1cc(Nc2ncc(Cl)c(NC[C@@H]3CCCN3)n2)cn1` [Example 66, (S)-2-(4-(5-chloro-4-(pyrrolidin-2-ylmethylamino)pyrimidin-2-ylamino)-1H-pyrazol-1-yl)-N,N-dimethylacetamide], the negative-log IC50 (pIC50) – broadly, the IC50 on a negative log10 scale, so that one unit is a factor of ten – at JAK2 was < 5.00; at JAK1, 5.00 to 6.00; at TYK2, 6.00 to 7.00; on JAK3 it was 5.00 to 6.00.
For `CNC(=O)Cn1cc(Nc2ncc(Cl)c(NC[C@H]3CCCN3S(C)(=O)=O)n2)cn1` [Example 67, (R)-2-(4-(5-chloro-4-((1-(methylsulfonyl)pyrrolidin-2-yl)methylamino)pyrimidin-2-ylamino)-1H-pyrazol-1-yl)-N-methylacetamide], the negative logarithm of the IC50 (pIC50) on JAK2, at JAK1, on TYK2 and at JAK3 was > 7.00 each time. On TYK2, the “Selectivity ratio over JAK2, Tyk2” value is reported as “Tyk2 = 13”.
For `CN(C)C(=O)Cn1cc(Nc2ncc(Cl)c(NC[C@H]3CCCN3S(C)(=O)=O)n2)cn1` [Example 68, (R)-2-(4-(5-chloro-4-((1-(methylsulfonyl)pyrrolidin-2-yl)methylamino)pyrimidin-2-ylamino)-1H-pyrazol-1-yl)-N,N-dimethylacetamide], the pIC50 on JAK2, on JAK1, on TYK2 and at JAK3 was > 7.00 throughout. Moreover, the “Selectivity ratio over JAK2, Tyk2” value on TYK2 was “Tyk2 = 13”.
With `CN(C)C(=O)Cn1cc(Nc2ncc(Cl)c(NC[C@@H]3CCCN3S(C)(=O)=O)n2)cn1` [Example 69, (S)-2-(4-(5-chloro-4-((1-(methylsulfonyl)pyrrolidin-2-yl)methylamino)pyrimidin-2-ylamino)-1H-pyrazol-1-yl)-N,N-dimethylacetamide], the pIC50 at JAK2 was 6.00 to 7.00; at JAK1 it was > 7.00; at TYK2 it was > 7.00; at JAK3, > 7.00. Moreover, the “Selectivity ratio over JAK2, JAK3” value at JAK3 (JAK3 over JAK2) was “JAK3 = 44”.
`Cn1cc(Nc2ncc(F)c(NC[C@H]3CCCN3)n2)cn1` [Example 70, (R)-5-fluoro-N^2-(1-methyl-1H-pyrazol-4-yl)-N^4-(pyrrolidin-2-ylmethyl)pyrimidine-2,4-diamine Hydrochloride]: the negative logarithm of the IC50 (pIC50) was < 5.00 at JAK2, 5.00 to 6.00 at JAK1, < 5.00 on TYK2 and < 5.00 on JAK3.
As for `Cn1cc(Nc2ncc(F)c(NC[C@@H]3CCCN3)n2)cn1` [Example 71, (S)-5-fluoro-N^2-(1-methyl-1H-pyrazol-4-yl)-N^4-(pyrrolidin-2-ylmethyl)pyrimidine-2,4-diamine Hydrochloride], the negative logarithm of the IC50 (pIC50) on JAK2 is < 5.00; on JAK1 it was 5.00 to 6.00; at TYK2 it was 5.00 to 6.00; on JAK3, < 5.00.
For the compound `Cc1cnc(Nc2cnn(C)c2)nc1NC[C@H]1CCCN1` [Example 72, (R)-5-methyl-N^2-(1-methyl-1H-pyrazol-4-yl)-N^4-(pyrrolidin-2-ylmethyl)pyrimidine-2,4-diamine Hydrochloride], the pIC50 at JAK2 is < 5.00; at JAK1, 5.00 to 6.00; on TYK2, < 5.00; on JAK3, < 5.00.
As for `Cc1cnc(Nc2cnn(C)c2)nc1NC[C@@H]1CCCN1` [Example 73, (S)-5-methyl-N^2-(1-methyl-1H-pyrazol-4-yl)-N^4-(pyrrolidin-2-ylmethyl)pyrimidine-2,4-diamine Hydrochloride], the pIC50 on JAK2 is < 5.00; on JAK1, 5.00 to 6.00; at TYK2 it was 5.00 to 6.00; on JAK3 it was 5.00 to 6.00.
As to `Cl.Cn1cc(Nc2ncc(F)c(NC[C@H]3CCCN3S(C)(=O)=O)n2)cn1` [Example 74, (R)-5-fluoro-N^2-(1-methyl-1H-pyrazol-4-yl)-N^4-((1-(methylsulfonyl)pyrrolidin-2-yl)methyl)pyrimidine-2,4-diamine Hydrochloride], the pIC50 was 5.00 to 6.00 at JAK2, 6.00 to 7.00 on JAK1, > 7.00 on TYK2 and 6.00 to 7.00 on JAK3. On TYK2, the “Selectivity ratio over JAK2, Tyk2” value is reported as “Tyk2 = 50”.
`Cl.Cn1cc(Nc2ncc(F)c(NC[C@@H]3CCCN3S(C)(=O)=O)n2)cn1` [Example 75, (S)-5-fluoro-N2-(1-methyl-1H-pyrazol-4-yl)-N4-((1-(methylsulfonyl)pyrrolidin-2-yl)methyl)pyrimidine-2,4-diamine Hydrochloride]: the pIC50 is 5.00 to 6.00 at JAK2, > 7.00 on JAK1, > 7.00 at TYK2 and 6.00 to 7.00 on JAK3. Also, the “Selectivity ratio over JAK2, Tyk2” value at TYK2 was “Tyk2 = 28”.
As for `Cc1cnc(Nc2cnn(C)c2)nc1NC[C@H]1CCCN1S(C)(=O)=O` [Example 76, (R)-5-methyl-N^2-(1-methyl-1H-pyrazol-4-yl)-N^4-((1-(methylsulfonyl)pyrrolidin-2-yl)methyl)pyrimidine-2,4-diamine], the negative-log IC50 (pIC50) is 6.00 to 7.00 at JAK2, > 7.00 on JAK1, > 7.00 at TYK2 and > 7.00 on JAK3. Further, the “Selectivity ratio over JAK2, JAK1” value on JAK1 is reported as “JAK1 = 26”.
As to `Cc1cnc(Nc2cnn(C)c2)nc1NC[C@@H]1CCCN1S(C)(=O)=O` [Example 77, (S)-5-methyl-N^2-(1-methyl-1H-pyrazol-4-yl)-N^4-((1-(methylsulfonyl)pyrrolidin-2-yl)methyl)pyrimidine-2,4-diamine], the pIC50 at JAK2 is 6.00 to 7.00; at JAK1, > 7.00; on TYK2, > 7.00; at JAK3, > 7.00. In addition, the “Selectivity ratio over JAK2, JAK1” value at JAK1 is “JAK1 = 28”.
On to `CN1C(=O)CCC1CNc1nc(Nc2cnn(C)c2)ncc1Cl` (stereo not drawn) [Example 78, 5-(((5-chloro-2-((1-methyl-1H-pyrazol-4-yl)amino)pyrimidin-4-yl)amino)methyl)-1-methylpyrrolidin-2-one], for which the negative-log IC50 (pIC50) is 5.00 to 6.00 at JAK2, 6.00 to 7.00 on JAK1, 6.00 to 7.00 at TYK2 and 5.00 to 6.00 at JAK3. Also, the “Selectivity ratio over JAK2, JAK1” value on JAK1 was “JAK1 = 38”.
As to `Cn1cc(Nc2ncc(Cl)c(NC[C@H]3CCCN3CCC(F)(F)F)n2)cn1` [Example 80, (R)-5-chloro-N^2-(1-methyl-1H-pyrazol-4-yl)-N^4-((1-(3,3,3-trifluoropropyl)pyrrolidin-2-yl)methyl)pyrimidine-2,4-diamine], the negative logarithm of the IC50 (pIC50) on JAK2 was > 7.00; on JAK1, > 7.00; at TYK2, > 7.00; on JAK3, 6.00 to 7.00. At TYK2, the “Selectivity ratio over JAK2, Tyk2” value is recorded as “Tyk2 = 33”.
For `Cn1cc(Nc2ncc(Cl)c(NC[C@@H]3CCCN3CCC#N)n2)cn1` [Example 81, (S)-3-(2-(((5-chloro-2-((1-methyl-1H-pyrazol-4-yl)amino)pyrimidin-4-yl)amino)methyl)pyrrolidin-1-yl)propanenitrile], the pIC50 on JAK2 was > 7.00; on JAK1 it was > 7.00; on TYK2, > 7.00; at JAK3, 6.00 to 7.00. Besides, at TYK2, the “Selectivity ratio over JAK2, Tyk2” value is “Tyk2 = 11”.
As for `Cn1cc(Nc2ncc(Cl)c(NC[C@@H]3CCCN3CCS(C)(=O)=O)n2)cn1` [Example 82, (S)-5-chloro-N^2-(1-methyl-1H-pyrazol-4-yl)-N^4-((1-(2-(methylsulfonyl)ethyl)pyrrolidin-2-yl)methyl)pyrimidine-2,4-diamine], the negative logarithm of the IC50 (pIC50) on JAK2 is > 7.00; on JAK1, > 7.00; on TYK2 it was > 7.00; on JAK3, 6.00 to 7.00. On JAK1, the “Selectivity ratio over JAK2, JAK1” value is reported as “JAK1 = 34”.

Source of the values: patent publication US20150005281A1, “PYRIMIDINE-2,4-DIAMINE DERIVATIVES AS KINASE INHIBITORS” (Cellzome Limited, priority 2011, published 2015).
